Target: T1, Pq3-O-UGT2 (Panax quinquefolius, UniProt A0A0M4ME80)
T1 construct: pET-28a, C-terminal TEV site and 6xHis tag, E. coli Rosetta (DE3); Ni-NTA, HiTrap Q, Mono Q, Superdex 200; monomer; domains a.a; 1-442
T1 sequence (A0A0M4ME80 1-442): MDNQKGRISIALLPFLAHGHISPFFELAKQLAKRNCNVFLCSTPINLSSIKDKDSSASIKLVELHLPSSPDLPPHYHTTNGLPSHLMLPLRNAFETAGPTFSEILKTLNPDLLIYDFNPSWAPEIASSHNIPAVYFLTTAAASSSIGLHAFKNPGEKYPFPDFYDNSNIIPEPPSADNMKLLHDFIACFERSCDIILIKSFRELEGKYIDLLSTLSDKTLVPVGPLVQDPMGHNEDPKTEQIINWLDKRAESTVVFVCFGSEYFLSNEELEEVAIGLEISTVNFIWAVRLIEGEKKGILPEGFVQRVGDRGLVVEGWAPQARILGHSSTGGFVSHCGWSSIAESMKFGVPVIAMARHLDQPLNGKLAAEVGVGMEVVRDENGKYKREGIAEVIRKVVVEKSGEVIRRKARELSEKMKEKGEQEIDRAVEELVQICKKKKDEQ
Experiment: X-ray crystallography, co-crystal, […] Å
Conditions: acceptor-binding pocket in N-terminal domain

CC(C)=CCC[C@](C)(O)[C@H]1CC[C@]2(C)[C@@H]1[C@H](O)C[C@@H]1[C@@]3(C)CC[C@H](O[C@@H]4O[C@H](CO)[C@@H](O)[C@H](O)[C@H]4O)C(C)(C)[C@@H]3CC[C@]12C [Rh2, Ginsenoside Rh2]
X-ray crystallography, co-crystal, 3.5 Å: we solved crystal structures of apo Pq3‐O‐UGT2 and its complex with Rh2
